Data published in patent publication US12630520B2, “Left-handed bicyclic morpholine and salt thereof, preparation method therefor, pharmaceutical composition, and use” (Institute of Materia Medica, Chinese Academy of Medical …, priority 2019, dated 2026).
Several values for one entry are separate records, joined by “and”; a condition that tells them apart may be missing. Equal entries are not always repeated.

Tests used:
HepG2 cells = test: 4-Acetamidophenol (APAP)-induced in vitro hepatocyte injury, MTT and LDH; type: cell-based, human; conditions: 8 mM APAP; for LDH level in the cell culture supernatant: HepG2, 10 uM, 24 h (the FIGURE); for Survival rates (%) / OD Mean ± SD / Cell survival rate increase (%): HepG2, 10 μM; for Survival rates (%) / OD Mean ± SD: 24 h, MTT; for OD Mean ± SD: 570 nm; for Cell survival rate increase (%): versus model group
Procedure: Human liver cancer HepG2 cell well retained the characteristics of normal human hepatocytes, and they were grown in a DMEM medium containing 10% of fetal calf cerium (containing 100 U/mL of penicillin and 100 μg/mL of streptomycin) at the culturing conditions: 37° C., 5% of CO2 and a saturated humidity. A solution containing 0.25% of trypsin and 0.02% of EDTA was used for digestions and passages.
A MTT method was adopted. The HepG2 cells were inoculated in a 96-well cell culture plate, and after 24 hour cultures, the (+)IMM-H014, the (−)IMM-H014 and the (±)IMM-H014 were added in a non-toxic concentration whilst the 4-acetamidophenol (APAP, a final concentration of 8 mM) was added thereto. A Bicyclol positive control group, a solvent control group and a model group were set for the experiment. The culture was continued for 24 h. 100 μL of the culture solution was taken and centrifuged, and a full-automatic biochemical analyzer in a LDH detection kit was utilized to detect the LDH level therein. The remaining culture solution was discarded, and to each well, 100 μL of a MTT (0.5 mg/mL) solution was added to continue the culture for 4 hours. The MTT solution was discarded, and to each well, 150 μL of DMSO was added. The mixture was oscillated by a mixing oscillator, and the absorbance value was measured at a wavelength of 570 nm in a microplate reader. Cell survival rate (%)=(OD mean of administration group/OD mean of solvent control group)×100%.
The data were presented as a number mean±standard deviation (x±SD).

[1] = test system: ethionine-induced non-alcoholic fatty liver; test: Ethionine-induced mouse non-alcoholic fatty liver model; type: in vivo; conditions: for TC (mmol/gprot): mouse liver tissue cholesterol; for TC (mmol/gprot) / TG (mmol/gprot): 200 mg/kg intragastric once a day x3, 250 mg/kg ethionine; for TG (mmol/gprot): mouse liver tissue triglyceride; for Percent TG reduction (%) / TC reduction percent (%): mouse liver tissue, 200 mg/kg, versus model group
Procedure: 1. Method for Establishment of an Ethionine-Induced Mouse Non-Alcoholic Fatty Liver Model and Method of Administration SPF-grade male ICR mice (20-22 g), after acclimatization, were randomly divided into 5 groups: a blank control group, an ethionine-induced model group, a 200 mg/kg (+)IMM-H014 group, a 200 mg/kg (−)IMM-H014 group, and a 200 mg/kg (±)IMM-H014 group, 5 mice in each group. Three days before the establishment of the models, each administration group was intragastrically administrated once per day, and it was totally administrated three times. The animals in the blank control group and the model group were intragastrically administrated with the same dose of physiological saline. Each administration dose was 10 mL/kg. One hour after the last administration, the mice in each group were intragastrically administrated with 250 mg/kg ethionine once. The administration dose was 20 ml/kg. The mice were in fasting but not in water deprivation for 24 h and then the animals waited for further treatment. 2. Determinations of the Contents of Triglyceride and Cholesterol in Liver Tissues The mice were subjected to thoracotomy to take out the livers which were washed with physiological saline at 4° C. A part of the liver tissues were prepared into a 10% liver tissue homogenate with a lysate and an electric homogenizer, wherein one part was measured according to the measurement methods of a triglyceride kit and a cholesterol kit to determine the triglyceride and cholesterol therein, and the other part was measured with a BCA protein quantification kit to determine the content of proteins therein. The triglyceride and cholesterol in the liver tissues were subjected to protein corrections. By adopting SPSS software, the data each were presented as a number mean±standard deviation (x±SD).

Compound	LDH level in the cell culture supernatant (HepG2 cells)	Survival rates (%) (HepG2 cells)	OD Mean ± SD (HepG2 cells)	Cell survival rate increase (%) (HepG2 cells)	TC (mmol/gprot) [1] [mmol/gprot]	TG (mmol/gprot) [1] [mmol/gprot]	Percent TG reduction (%) [1] [%]	TC reduction percent (%) [1] [%]	Percent TG reduction (%) ([1]; listed as (−) IMM-H014, 200 mg/kg)
COC(=O)c1cc(OC)c2c(c1-c1c(CN3CCOCC3)cc(OC)c3c1OCO3)OCO2 [(−)IMM-H014]	could reduce the LDH levels	67.01	0.600 ± 0.054^###&	74.8%	0.061 ± 0.013	0.154 ± 0.040	39.0	32.4	39.0
COC(=O)c1cc(OC)c2c(c1-c1c(CN3CCOCC3)cc(OC)c3c1OCO3)OCO2 (racemic) [(±)IMM-H014]	could reduce the LDH levels	50.63	0.453 ± 0.032	32.1%	0.063 ± 0.013	0.110 ± 0.005	56.6	30.0	
COC(=O)c1cc(OC)c2c(c1-c1c(CN3CCOCC3)cc(OC)c3c1OCO3)OCO2 [(+)IMM-H014]	could reduce the LDH levels	54.58	0.489 ± 0.098	41.4% and 42.4%	0.065 ± 0.022	0.235 ± 0.070	7.1	27.2	
